Measurements as given in US4698352A, “4-oxo-1,4-dihydronicotinic acid derivatives, salts thereof, and antibacterial agents containing the same” (Toyama Chemical Co., Ltd., priority 1982, dated 1987).
In brackets after ≈: the same amount, converted by molar mass. Read-outs that look alike come from different tables or passages of the source.

Columns and labels:
Assay in all cases: Antibacterial activity (MIC), agar dilution
Format in all cases: cell-based
[1] = test system: Aci. antitratus A-6; details: 20 h, Aci. antitratus A-6; 10^6 cells per ml; 37° C., 20 hours; read-out: MIC
Excerpt: (§1) The amount of bacteria inoculated was 10^4 cells per plate (10^6 cells per ml).

[2] = test system: E. coli NIHJ JC-2; details: Escherichia coli, NIHJJC2, 20 h
Excerpt: as §1

[3] = test system: E. coli TK-111; details: Escherichia coli, TK111, 20 h, E. coli TK-111; 10^6 cells per ml; 37° C., 20 hours; read-out: MIC
Excerpt: as §1

[4] = test system: Ent. cloacae IID977; details: Enterobacter cloacae, IID977, 20 h
Excerpt: as §1

[5] = test system: Kl. pneumoniae Y-41; details: Klebsiella pneumoniae, Y41, 10^6 cells per ml, 37° C., 20 hours, read-out: MIC
Excerpt: as §1

[6] = test system: Kl. pneumoniae Y-50; details: Klebsiella pneumoniae, Y50, 20 h, 10^6 cells per ml, 37° C., read-out: MIC
Excerpt: as §1

[7] = test system: Pro. mirabilis T-111; details: Proteus mirabilis, 37° C.
Excerpt: as §1

[8] = test system: Pro. morganii T-216; details: Morganella morganii, 37° C.
Excerpt: as §1

[9] = test system: Pro. vulgaris GN3027; details: Proteus vulgaris, GN3027, 20 h
Excerpt: as §1

[10] = test system: Ps. aeruginosa IFO3445; details: Pseudomonas aeruginosa
Excerpt: as §1

[11] = test system: Ps. aeruginosa S-68; details: Pseudomonas aeruginosa
Excerpt: as §1

[12] = test system: St. aureus FDA209P; details: Staphylococcus aureus, FDA209P, 20 h
Excerpt: as §1

[13] = test system: E. coli TK-3*; details: Escherichia coli, 20 h, E. coli TK-3, penicillinase-producing; 10^6 cells per ml; read-out: MIC
Excerpt: as §1
(§2) * Penicillinase-producing bacteria

[14] = test system: Kl. pneumoniae Y-4*; details: Klebsiella pneumoniae, 20 h, Kl. pneumoniae Y-4, penicillinase-producing; 10^6 cells per ml; read-out: MIC
Excerpt: as §1, §2

[15] = test system: Ps. aeruginosa GN3379*; details: Pseudomonas aeruginosa, Ps. aeruginosa GN3379, penicillinase-producing, 10^6 cells per ml
Excerpt: as §1, §2

[16] = test system: St. aureus F-137*; details: Staphylococcus aureus, 20 h
Excerpt: as §1, §2

[17] = test system: E. coli GN5482**; details: Escherichia coli, 20 h; E. coli GN5482, cephalospolinase-producing; 10^6 cells per ml; read-out: MIC
Excerpt: as §1
(§3) ** Cephalospolinase-producing bacteria

[18] = test system: Pro. vulgaris GN76**; details: Proteus vulgaris, 20 h; Pro. vulgaris GN76, cephalospolinase-producing; 10^6 cells per ml; read-out: MIC
Excerpt: as §1, §3

[19] = test system: Ps. aeruginosa GN918**; details: Pseudomonas aeruginosa, Ps. aeruginosa GN918, cephalospolinase-producing, 10^6 cells per ml
Excerpt: as §1, §3

[20] = Ent. cloacae IID977, 10^6 cells per ml, 37° C., 20 hours, read-out: MIC
[21] = Ps. aeruginosa IFO3445, 10^6 cells per ml, 37° C., 20 hours, read-out: MIC
[22] = S68, Ps. aeruginosa S-68, 10^6 cells per ml, 37° C., 20 hours, read-out: MIC
[23] = St. aureus FDA209P, 10^6 cells per ml, 37° C., 20 hours, read-out: MIC
[24] = St. aureus F-137, penicillinase-producing, 10^6 cells per ml, read-out: MIC
[25] = E. coli NIHJ JC-2, 10^6 cells per ml, 37° C., 20 hours, read-out: MIC
[26] = T216, 10^6 cells per ml, 20 hours, read-out: MIC
[27] = Pro. vulgaris GN3027, 10^6 cells per ml, 37° C., 20 hours, read-out: MIC
[28] = T111, 10^6 cells per ml, 20 hours, read-out: MIC

| Compound | MIC [1] [µg/mL] | MIC [3] [µg/mL] | MIC [4, 20] [µg/mL] | MIC [5] [µg/mL] | MIC [6] [µg/mL] | MIC ([7]; T111, 20 h, 10^6 cells per ml) [µg/mL] | MIC [10, 21] [µg/mL] | MIC [11, 22] [µg/mL] | MIC [12, 23] [µg/mL] | MIC [13] [µg/mL] | MIC [14] [µg/mL] | MIC ([15]; 20 h, read-out: MIC) [µg/mL] | MIC [16, 24] [µg/mL] | MIC [17] [µg/mL] | MIC [18] [µg/mL] | MIC [2, 25] [µg/mL] | MIC [8, 26] [µg/mL] | MIC [9, 27] [µg/mL] | MIC ([11]; S68, 20 h) [µg/mL] | MIC ([19]; 20 h, read-out: MIC) [µg/mL] | further results |
| --- | --- | --- | --- | --- | --- | --- | --- | --- | --- | --- | --- | --- | --- | --- | --- | --- | --- | --- | --- | --- | --- |
| O=C(O)c1cn(-c2ccc(O)cc2F)c(-c2ccc(N3CCOCC3)cc2)cc1=O | 6.25 (≈ 15.2 µM) | 0.39 (≈ 0.95 µM) | 6.25 (≈ 15.2 µM) | 12.5 (≈ 30.5 µM) | 1.56 (≈ 3.8 µM) | 12.5 (≈ 30.5 µM) | 100 (≈ 244 µM) | 25 (≈ 60.9 µM) | 0.78 (≈ 1.9 µM) | 3.13 (≈ 7.63 µM) | 25 (≈ 60.9 µM) | 50 (≈ 122 µM) | 0.78 (≈ 1.9 µM) | 0.39 (≈ 0.95 µM) | 6.25 (≈ 15.2 µM) |  |  |  |  |  | MIC [2]: 1.56 µg/mL (≈ 3.8 µM); MIC ([8]; T216, 20 h, 10^6 cells per ml): 12.5 µg/mL (≈ 30.5 µM); MIC [9]: 1.56 µg/mL (≈ 3.8 µM); MIC ([19]; GN918, 20 h): 12.5 µg/mL (≈ 30.5 µM) |
| CC(=O)Oc1ccc(-n2cc(C(=O)O)c(=O)cc2-c2ccc(N(C)C)cc2)cc1 | 0.2 (≈ 0.51 µM) | ≤ 0.05 |  | 1.56 (≈ 3.98 µM) | 0.39 (≈ 0.994 µM) | 3.13 (≈ 7.98 µM) |  |  | 0.1 (≈ 0.255 µM) | 0.39 (≈ 0.994 µM) | 3.13 (≈ 7.98 µM) |  | 0.1 (≈ 0.255 µM) | ≤ 0.05 | 0.39 (≈ 0.994 µM) | 0.2 (≈ 0.51 µM) | 0.78 (≈ 1.99 µM) | 0.1 (≈ 0.255 µM) | 3.13 (≈ 7.98 µM) | 0.78 (≈ 1.99 µM) | MIC [4]: 1.56 µg/mL (≈ 3.98 µM); MIC ([10]; IFO3445, 20 h): 3.13 µg/mL (≈ 7.98 µM); MIC ([15]; GN3379, 20 h): 3.13 µg/mL (≈ 7.98 µM) |
| O=C(O)c1cn(-c2ccc(O)cc2)c(-c2ccc(-c3ccccc3)cc2)cc1=O | 0.39 (≈ 1.02 µM) | 0.1 (≈ 0.261 µM) | 3.13 (≈ 8.16 µM) | 12.5 (≈ 32.6 µM) | 0.39 (≈ 1.02 µM) |  | 25 (≈ 65.2 µM) |  | ≤ 0.05 | 0.78 (≈ 2.03 µM) | 12.5 (≈ 32.6 µM) | 100 (≈ 261 µM) | ≤ 0.05 | ≤ 0.05 | 0.78 (≈ 2.03 µM) | 0.39 (≈ 1.02 µM) | 1.56 (≈ 4.07 µM) | 0.2 (≈ 0.522 µM) | 12.5 (≈ 32.6 µM) | 1.56 (≈ 4.07 µM) | MIC [7, 28]: 3.13 µg/mL (≈ 8.16 µM) |
| Cc1ccc(-c2cc(=O)c(C(=O)O)cn2-c2ccc(O)cc2)s1 | 0.39 (≈ 1.19 µM) | ≤ 0.05 | 0.78 (≈ 2.38 µM) | 0.78 (≈ 2.38 µM) | 0.2 (≈ 0.611 µM) |  | 3.13 (≈ 9.56 µM) | 3.13 (≈ 9.56 µM) | 0.2 (≈ 0.611 µM) | 0.2 (≈ 0.611 µM) | 1.56 (≈ 4.77 µM) | 3.13 (≈ 9.56 µM) | 0.2 (≈ 0.611 µM) | ≤ 0.05 | 0.2 (≈ 0.611 µM) | 0.2 (≈ 0.611 µM) | 0.39 (≈ 1.19 µM) | ≤ 0.05 |  | 0.78 (≈ 2.38 µM) | MIC [7, 28]: 3.13 µg/mL (≈ 9.56 µM) |
| O=C(O)c1cn(-c2ccc(O)cc2)c(-c2ccc3cccnc3c2)cc1=O | 25 (≈ 69.8 µM) | 0.39 (≈ 1.09 µM) | 3.13 (≈ 8.73 µM) | 6.25 (≈ 17.4 µM) | 1.56 (≈ 4.35 µM) |  | 25 (≈ 69.8 µM) |  |  | 0.39 (≈ 1.09 µM) | 12.5 (≈ 34.9 µM) |  |  | ≤ 0.05 | 3.13 (≈ 8.73 µM) | 0.78 (≈ 2.18 µM) |  | 0.39 (≈ 1.09 µM) | 12.5 (≈ 34.9 µM) | 3.13 (≈ 8.73 µM) | MIC [7, 28]: 25 µg/mL (≈ 69.8 µM); MIC ([8]; T216, 20 h, 10^6 cells per ml): 6.25 µg/mL (≈ 17.4 µM); MIC [12]: 1.56 µg/mL (≈ 4.35 µM); MIC ([15]; GN3379, 20 h): 12.5 µg/mL (≈ 34.9 µM); MIC [16]: 1.56 µg/mL (≈ 4.35 µM) |
| CN(C)c1ccc(-c2cc(=O)c(C(=O)O)cn2-c2ccc(O)c(F)c2)cc1 | 0.39 (≈ 1.06 µM) | 0.1 (≈ 0.271 µM) | 1.56 (≈ 4.23 µM) | 3.13 (≈ 8.5 µM) | 0.39 (≈ 1.06 µM) | 3.13 (≈ 8.5 µM) |  | 1.56 (≈ 4.23 µM) | 0.39 (≈ 1.06 µM) | 0.78 (≈ 2.12 µM) | 3.13 (≈ 8.5 µM) |  | 0.39 (≈ 1.06 µM) | ≤ 0.05 | 0.78 (≈ 2.12 µM) | 0.39 (≈ 1.06 µM) | 1.56 (≈ 4.23 µM) | 0.2 (≈ 0.543 µM) |  | 12.5 (≈ 33.9 µM) | MIC ([10]; IFO3445, 20 h): 3.13 µg/mL (≈ 8.5 µM); MIC ([15]; GN3379, 20 h): 3.13 µg/mL (≈ 8.5 µM) |
